Experimental data taken from PMC6009956, “Design, synthesis and biological activity of N^4-phenylsubstituted-7H-pyrrolo[2,3-d]pyrimidin-4-amines as dual inhibitors of aurora kinase A and epidermal growth factor receptor kinase” (Journal of Enzyme Inhibition and Medicinal Chemistry, 2017).
Where two headings read alike, the source gives them in different places.

What was measured:
FADU cells = assay: Proliferation (cell counting), FADU; assay type: cell-based; settings: 100 µM
Method: FADU, BHY, SAS and CAL cell lines were obtained from ATCC-LGC and were cultured in DMEM (Invitrogen, Germany) supplemented with 10% of heat activated bovine serum (FBS, PAA, Germany), 1% of glutamine, 1% of penicillin-streptomycin (Invitrogen, Germany). To measure proliferation, SCCHN cells were split, reseeded (5 × 10^5 in 25 cm^2 flasks) and counted at the indicated time points. Cells were then replated at the initial density. The fold increase in cell number was calculated, all given results are based on triplicate experiments. To assess cell death 5 × 10^5 cells were stained with propidium iodide (PI, Sigma, Germany). Following incubation, cells were washed, resuspended in PBS, and analysed by flow cytometry. The fraction of PI-positive cells is reported as dead cell fraction.
Figure 3. […] Cells were incubated with compound 2 for 48 h and then subjected to PI staining and FACS analysis. PI-positive cell fraction as measure of cell death is reported. (B) Four SCCHN cell lines were incubated with 100 μM of compound 2 and counted on the indicated days. Experiments in triplicates, fold growth shown. (C) EGFR expression of SCCHN cell lines. EGFR high and low as detected by western blot analysis (D) The SCCHN cell lines were incubated with 100 μM of compound 2 for 72 h. Percent PI positive cells are given. Experiments in triplicates.

AURKB = biological target: T1, AURKB (Homo sapiens, UniProt Q96GD4); assay: DiscoverX competition binding assay, AURKB; settings: read-out: Binding constant (Kd) AURKB
T1 construct: purchased DiscoverX Corporation (assay run externally by the vendor)
Method: (§1) The assay was performed externally at DiscoverX Corporation using a competition binding assay that quantitatively measures the ability of a compound to compete with an immobilised, active-site directed ligand[24]. The assay is performed by combining three components: DNA-tagged kinase, immobilised ligand and a test compound. The ability of the test compound to compete with the immobilised ligand was measured via quantitative PCR of the DNA tag. An 11-point 3-fold serial dilution of each test compound was prepared in 100% of DMSO at 100× final test concentration and subsequently diluted to 1× in the assay (final DMSO concentration = 1%). […] Binding constants (Kd) were calculated with a standard dose-response curve using the Hill equation.
(§2) Binding Affinities for EGFR, AURKA and AURKB
(§3) The assay was performed externally at DiscoverX Corporation using a competition binding assay that quantitatively measures the ability of a compound to compete with an immobilized, active-site directed ligand for target kinases AURKA, AURKB and EGFR.23 The assay is performed by combining three components: DNA-tagged kinase; immobilized ligand; and a test compound. The ability of the test compound to compete with the immobilized ligand was measured via quantitative PCR of the DNA tag. […] Compound Kds were determined using a compound top […]

aurora A kinase (AURKA) = biological target: T2, aurora A kinase (AURKA) (Homo sapiens, UniProt O14965); assay: ADP-Glo kinase assay, Aurora A; assay type: biochemical
T2 construct: purchased BPS Bioscience (assay run externally by the vendor)
T2 sequence (O14965 1-403): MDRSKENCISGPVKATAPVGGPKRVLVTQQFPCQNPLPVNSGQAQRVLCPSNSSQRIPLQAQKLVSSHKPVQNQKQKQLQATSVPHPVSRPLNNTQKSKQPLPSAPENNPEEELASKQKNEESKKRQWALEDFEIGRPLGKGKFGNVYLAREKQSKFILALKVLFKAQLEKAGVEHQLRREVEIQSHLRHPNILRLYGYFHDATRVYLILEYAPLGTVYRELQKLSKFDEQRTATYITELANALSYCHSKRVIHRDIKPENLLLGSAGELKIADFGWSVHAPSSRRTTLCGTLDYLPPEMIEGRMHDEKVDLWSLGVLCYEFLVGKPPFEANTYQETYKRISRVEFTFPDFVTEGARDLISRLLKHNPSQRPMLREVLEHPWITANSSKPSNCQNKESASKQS

AURKA = biological target: T3, AURKA (Homo sapiens, UniProt O14965); assay: DiscoverX competition binding assay, AURKA; settings: read-out: Binding constant (Kd) AURKA
T3 construct: purchased DiscoverX Corporation (assay run externally by the vendor)
T3 sequence (O14965 1-403): T2 sequence (O14965 1-403)
Method: as §1, §2, §3

[1] = tested on: Phosphorylated histone H3 (p-HH3) in BHY and FADU SCCHN cell lines; assay: Western blot of p-HH3 in BHY and FADU cells; assay type: cell-based; settings: 100 μM
Method: Protein extracts (50 μg per lane) were electrophoretically separated on SDS-PAGE gels, transferred to membranes (Protran, Schleicher & Schuell, Dassel, Germany) and blotted with specific antibodies (actin, aurora A, aurora B: all from Sigma, Munich, Germany; S10-HH3: Millipore, Schwalbach, Germany; EGFR: Santa Cruz, Heidelberg, Germany; pEGFR: Invitrogen, Darmstadt, Germany; pAKT, pERK: both from New England Biolabs, Frankfurt, Germany).
Figure 4. Effects of compound 2 on EGFR and aurora kinases in growing SCCHN cell lines (A) Western blot analysis of EGFR (pEGFR, pERK, p-AKT) and aurora A (p-HH3) downstream target proteins following incubation with 100 μM compound 2 for the indicated time points in BHY and FADU SCCHN cell lines. (B) BHY and CAL cell lines treated for the indicated time points with 200 nM cetuximab. Western blot analysis of EGFR downstream targets. (long exposure and short exposure). […] Western blot analysis of p-HH3 at the indicated time points. Asterisk (*) represents unspecific band.

T1 sequence (Q96GD4 whole entry): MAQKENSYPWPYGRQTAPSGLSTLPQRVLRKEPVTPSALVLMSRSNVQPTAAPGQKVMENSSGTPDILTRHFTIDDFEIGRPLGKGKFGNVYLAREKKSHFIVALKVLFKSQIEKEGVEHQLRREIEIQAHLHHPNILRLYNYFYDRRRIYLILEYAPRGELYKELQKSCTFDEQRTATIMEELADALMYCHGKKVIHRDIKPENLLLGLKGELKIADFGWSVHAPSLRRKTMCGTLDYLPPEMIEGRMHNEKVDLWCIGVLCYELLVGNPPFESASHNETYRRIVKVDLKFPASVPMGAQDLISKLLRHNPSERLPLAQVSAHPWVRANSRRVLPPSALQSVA

- Kd (AURKB): 4800 nM
- IC50 (aurora A kinase (AURKA); 10 µM ATP, triplicate, read-out: AURKA IC50 ± SD): 1990 ± 50 nM
- IC50 (aurora A kinase (AURKA); 10 µM ATP/0.2 mg/ml Kemptide, read-out: Aurora A IC50 (dose-response curve, supplement)): 2000 nM
- Aurora A % Activity Set1 (aurora A kinase (AURKA); Log[nM] 0): 107%
- Aurora A % Activity Set2 (aurora A kinase (AURKA); Log[nM] 0): 94%
- Aurora A % Activity Set3 (aurora A kinase (AURKA); Log[nM] 0): 94%
- Aurora A % Activity Set1 (aurora A kinase (AURKA); Log[nM] 1.0): 109%
- Aurora A % Activity Set2 (aurora A kinase (AURKA); Log[nM] 1.0): 97%
- Aurora A % Activity Set3 (aurora A kinase (AURKA); Log[nM] 1.0): 96%
- Aurora A % Activity Set1 (aurora A kinase (AURKA); Log[nM] 1.5): 109%
- Aurora A % Activity Set2 (aurora A kinase (AURKA); Log[nM] 1.5): 96%
- Aurora A % Activity Set3 (aurora A kinase (AURKA); Log[nM] 1.5): 101%
- Aurora A % Activity Set1 (aurora A kinase (AURKA); Log[nM] 2.0): 102%
- Aurora A % Activity Set2 (aurora A kinase (AURKA); Log[nM] 2.0): 97%
- Aurora A % Activity Set3 (aurora A kinase (AURKA); Log[nM] 2.0): 105%
- Aurora A % Activity Set1 (aurora A kinase (AURKA); Log[nM] 2.5): 94%
- Aurora A % Activity Set2 (aurora A kinase (AURKA); Log[nM] 2.5): 88%
- Aurora A % Activity Set3 (aurora A kinase (AURKA); Log[nM] 2.5): 95%
- Aurora A % Activity Set1 (aurora A kinase (AURKA); Log[nM] 3.0): 70%
- Aurora A % Activity Set2 (aurora A kinase (AURKA); Log[nM] 3.0): 66%
- Aurora A % Activity Set3 (aurora A kinase (AURKA); Log[nM] 3.0): 69%
- Aurora A % Activity Set1 (aurora A kinase (AURKA); Log[nM] 3.5): 35%
- Aurora A % Activity Set2 (aurora A kinase (AURKA); Log[nM] 3.5): 34%
- Aurora A % Activity Set3 (aurora A kinase (AURKA); Log[nM] 3.5): 34%
- Aurora A % Activity Set1 (aurora A kinase (AURKA); Log[nM] 4.0): 16%
- Aurora A % Activity Set2 (aurora A kinase (AURKA); Log[nM] 4.0): 14%
- Aurora A % Activity Set3 (aurora A kinase (AURKA); Log[nM] 4.0): 14%
- Aurora A % Activity Set1 (aurora A kinase (AURKA); Log[nM] 4.5): 6%
- Aurora A % Activity Set2 (aurora A kinase (AURKA); Log[nM] 4.5): 5%
- Aurora A % Activity Set3 (aurora A kinase (AURKA); Log[nM] 4.5): 5%
- Aurora A % Activity Set1 (aurora A kinase (AURKA); Log[nM] 5.0): 5%
- Aurora A % Activity Set2 (aurora A kinase (AURKA); Log[nM] 5.0): 5%
- Aurora A % Activity Set3 (aurora A kinase (AURKA); Log[nM] 5.0): 5%
- Kd (AURKA): 3400 nM
Compound: Brc1cccc(Nc2ncnc3[nH]ccc23)c1 [Compound 2, N^4-(3-bromophenyl)-7H-pyrrolo[2,3-d]pyrimidine-4-amine]
- Cell growth (fold growth) (FADU cells): completely inhibited cell growth
- Effect on histone p-HH3 [1]: Modest effects
